Measurements: PMC8655892 (ACS Omega, 2021)
Where a name gives a salt, the structure may show the parent alone.

Key:
[1] = Metabolic stability in mouse liver microsomes; type: in vitro ADME; conditions: 5 µM, 0.5 mg/mL microsomal protein, NADPH, up to 30 min
[2] = Plasma stability in mice plasma; conditions: 0–2 h, 10 µM, 37°C
[3] = Stability of rottlerin in plasma under storage conditions; type: in vitro ADME, mice; conditions: n=4
[4] = In vivo pharmacokinetics after oral and IV administration; set-up: species or system Balb/C mice
[5] = Metabolic stability in human liver microsomes; type: in vitro ADME; conditions: 5 µM, 0.5 mg/mL microsomal protein, NADPH, up to 30 min
[6] = Plasma protein binding by rapid equilibrium dialysis; conditions: mouse
[7] = intravenous, 1 mg/kg, Balb/C mice
[8] = male, Balb/C, mouse, plasma, iv, 1 mg/kg
[9] = male, Balb/C, mouse, plasma, po, 4 mg/kg

CC(=O)c1c(O)c(C)c(O)c(Cc2c(O)c3c(c(C(=O)/C=C/c4ccccc4)c2O)OC(C)(C)C=C3)c1O [Rottlerin]
remained intact in MLMs [1]: > 75% | degradation in mice plasma [2]: < 5% | stability study accuracy (%) ([3]; autosampler: processed samples, 4 °C, 24 h, HQC 800 ng/mL): 92.89% | stability study accuracy (%) ([3]; autosampler: processed samples, 4 °C, 24 h, LQC 5.7 ng/mL): 90.04% | stability study accuracy (%) ([3]; freeze–thaw: three cycles, −20 °C / room temperature, HQC 800 ng/mL): 91.69% | stability study accuracy (%) ([3]; freeze–thaw: three cycles, −20 °C / room temperature, LQC 5.7 ng/mL): 88.60% | Cl [4, 7]: 5.83 ± 0.5 mL/min/kg | T1/2 [4, 7]: 2.9 ± 0.8 h | Vd [4, 7]: 1.4 ± 0.4 L/kg | Cl ([4]; intravenous, 1 mg/kg, Balb/C mice, listed as rottlerin): ≤ 17 mL/min/kg | exposure (plasma levels) ([4]; iv, 1 mg/kg, Balb/C mice): ~3000 ng·h/mL | AUC(0-inf) [4, 8]: 2920 ± 292 ng·h/mL | AUC(0-t) [4, 8]: 2850 ± 311 ng·h/mL | C0 [4, 8]: 2110 ± 359 ng/mL | half-life ([4]; male, Balb/C, mouse, plasma, iv, 1 mg/kg, T1/2, intravenous, Balb/C mice): > 2 h | AUC(0-inf) [4, 9]: 4090 ± 348 ng·h/mL | AUC(0-t) [4, 9]: 4050 ± 360 ng·h/mL | Cmax [4, 9]: 660 ± 60 ng/mL | half-life ([4]; male, Balb/C, mouse, plasma, po, 4 mg/kg, T1/2, oral, Balb/C mice): > 2 h | Tmax ([4]; male, Balb/C, mouse, plasma, po, 4 mg/kg, Tmax, Balb/C mice): ~2.4 h | oral bioavailability ([4]; oral 4 mg/kg vs IV 1 mg/kg, Balb/C mice): 35–36% | Cl ([4]; oral, 4 mg/kg, Balb/C mice): 16.8 ± 1.3 mL/min/kg | T1/2 ([4]; oral, 4 mg/kg, Balb/C mice): 2.7 ± 0.4 h | Vd ([4]; oral, 4 mg/kg, Balb/C mice): 3.8 ± 0.6 L/kg | exposure (plasma levels) ([4]; oral, 4 mg/kg, Balb/C mice): around 4 μg h/mL | Cl ([4]; oral, 4 mg/kg, Balb/C mice, listed as rottlerin): ≤ 17 mL/min/kg | remained intact in HLMs [5]: over 91%

CNC(=C[N+](=O)[O-])NCCSCc1ccc(CN(C)C)o1 [ranitidine, ranitidine hydrochloride]
fraction unbound at 4 h, 5 µM [6]: 0.793
